The test system of one experiment is 2D7 capture antibody. Briefly: Sandwich ELISA with conformation sensitive 2D7 capture and 1D4 detection antibodies. It is filed as binding. Conditions: CCR5 from HEK-293 cells; 30 minutes at room temperature; sample 1 = DDM, CHAPS, DOPC/POPC. As for the experimental part:
The primary (capture) antibody was diluted to 1 μg/mL in 1×PBS pH 7.2 and 100 μL was added to each well of the microplate (Costar clear-bottom, black 96-well). The plate was stored overnight at 4° C. The plate wells were washed twice with PBS containing 0.05% Tween-20 and once with PBS and 200 μL of 10 mg/mL (1%) fatty-acid free BSA in PBS. The plate was either incubated at room temperature for 2 hours or overnight at 4° C. G-protein coupled receptor (GPCR)—NABBs were added to the respective wells in a final volume of 100 μL. GPCR-NABB was diluted in PBS containing 1 mg/mL (0.1%) BSA. The microplate was incubated at 4° C. overnight to ensure complete binding of epitope on the GPCR-NABB to the capture antibody. The analyte was then washed 3 times with 0.1% BSA-PBS using 200 μL per wash. […] The fluorescence in the wells was measured using a Cytofluor-II spectrofluorimeter with excitation at 530 nm and emission at 590 nm.
Conformational stability of the extracellular side of CCR5 after exposure to different detergents was determined by a sandwich ELISA using 2D7 and 1D4 antibodies. […] The amount of CCR5 bound to the 2D7 capture antibody was measured by detecting the binding of the second antibody-HRP-linked 1D4, and adding a fluorogenic HRP substrate in the microplate wells. […]
For orientation: An ELISA detects its analyte on a solid surface through an enzyme-linked reagent.

The next experiment has as its target T1, CCR5 (Homo sapiens, UniProt P51681).
T1 construct: made in house; host or cells: HEK-293 cells stably expressing CCR5, immunopurified on 1D4-sepharose
Briefly: High-throughput G-protein activation assay (BODIPY-FL-GTPγS binding) with CCR5-NABBs. It is filed as biochemical. Particulars: 50 nM RANTES, CCR5 in NABBs. As for the experimental part: A black, C-bottom 96-well plate was used for the high-throughput G-protein activation assay. 25 μL of purified G protein or its subunits were added to the microplate wells from a […] protein stock. The added proteins were either Gi1α subunit, Gi1α with transducin βγ subunits, or holotransducin (Gt), with 25 μl of buffer G1 without GDP. […] 100 μL of CCR5-NABB solution with and without RANTES were added to the respective wells and the microplate incubated at room temperature for 15 minutes. 60 μL of BODIPY-FL-GTPγS was added from a 1 μM stock to all wells using a multi-channel pipettor. The plate was shaken for 30 seconds, covered and incubated at room temperature for 5 minutes. The fluorescence in the wells was recorded using a Cytofluor II microplate reader with excitation wavelength at 485 nm and 20 nm bandpass, emission wavelength at 530 nm and 25 nm bandpass. The gain was set to 95 and 15 reads were integrated for each well. The fluorescence values from the wells containing BODIPY-FL-GTPγS and no G protein was subtracted from the rest of the data as background. The fluorescence values from wells containing the CCR5-NABBs with no RANTES was subtracted from RANTES-containing wells to determine the RANTES-specific response.
CCR5 activation of G protein was measured by binding of a fluorescently labeled nucleotide analog BODIPY-FL-GTPγS. […]
On the technique in general: Binding of GTPγS marks nucleotide exchange on a G protein.

T1 sequence (P51681 whole entry): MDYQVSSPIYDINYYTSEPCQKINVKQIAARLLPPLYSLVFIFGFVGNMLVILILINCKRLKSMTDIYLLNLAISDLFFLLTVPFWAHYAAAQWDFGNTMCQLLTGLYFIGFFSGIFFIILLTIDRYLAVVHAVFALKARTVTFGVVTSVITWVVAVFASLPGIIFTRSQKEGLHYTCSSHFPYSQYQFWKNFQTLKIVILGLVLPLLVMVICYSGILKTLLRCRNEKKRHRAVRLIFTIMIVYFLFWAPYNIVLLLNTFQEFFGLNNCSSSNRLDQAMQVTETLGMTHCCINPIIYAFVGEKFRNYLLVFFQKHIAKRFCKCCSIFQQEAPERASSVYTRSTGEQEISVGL

`CCCCCCCCCCCCO[C@@H]1O[C@H](CO)[C@@H](O[C@H]2O[C@H](CO)[C@@H](O)[C@H](O)[C@H]2O)[C@H](O)[C@H]1O` [DDM, n-dodecyl-beta-D-maltopyranoside]: the “2D7/1D4 sandwich ELISA signal relative to sample 1” value with 2D7 capture antibody is recorded as 65%.

Consider “RANTES: ligand used to stimulate CCR5 in NABBs”, for which the “enhancement of B-GTPγS binding to the G protein, compared with unstimulated CCR5-NABBs” value with CCR5 is on record as “up to 30%”.

The values are drawn from patent US8999320B2, “Nanoscale bound bilayers, methods of use and production” (The Rockefeller University, priority 2008, dated 2015).
